Test results taken from DBAASP.
≈ marks a conversion by molar mass, not a printed value. Blank lines part the entries; values can stand above or below the compound they belong to.

Key:
Test in all cases: ≥ marks a high value that may be exact or a test limit, other limits are often not marked, values filed in µg/mL are converted to µM
[1] = system: Escherichia coli UB1005
[2] = system: Staphylococcus epidermidis ATCC 12228
[3] = system: Salmonella enterica subsp. enterica serovar Typhimurium ATCC 14028
[4] = system: Pseudomonas aeruginosa ATCC 27853
[5] = system: Salmonella enterica subsp. enterica serovar Pullorum C79-13
[6] = system: Enterococcus faecalis ATCC 29212
[7] = system: Escherichia coli ATCC 25922
[8] = system: Staphylococcus aureus ATCC 29213
[9] = system: Bacillus subtilis CMCC 63501
[10] = system: Staphylococcus aureus ATCC 700699
[11] = system: Klebsiella pneumoniae ATCC 700603
[12] = system: Staphylococcus aureus ATCC 33591
[13] = system: Escherichia coli NEB5alpha
[14] = system: Bacillus subtilis ATCC 6051
[15] = system: Staphylococcus epidermidis C621
[16] = system: Pseudomonas aeruginosa K799
[17] = system: Staphylococcus aureus ATCC 25923
[18] = system: Salmonella enterica subsp. enterica serovar Typhimurium ATCC 14028s
[19] = system: Pseudomonas aeruginosa ATCC BAA-427
[20] = system: Bacillus subtilis ATCC 6633
[21] = system: Salmonella enterica subsp. enterica serovar Typhimurium C77-31

MIC [1]: ≥ 128 µM
MIC [2]: > 128 µM
MIC [3]: > 128 µM
MIC [4]: > 128 µM
MIC [5]: ≥ 64 µM
MIC [6]: 64 µM (≈ 89.5 µg/mL)
MIC [7]: 32 µM (≈ 44.8 µg/mL)
MIC [8]: > 128 µM
MIC [9]: ≥ 128 µM
SMILES: CC(C)[C@H](NC(=O)[C@H](CCCCN)NC(=O)[C@H](C)NC(=O)[C@H](C)NC(=O)[C@H](C)NC(=O)[C@H](CCCCN)NC(=O)[C@H](C)NC(=O)[C@H](C)NC(=O)[C@H](C)NC(=O)[C@H](CCCCN)NC(=O)[C@@H](NC(=O)[C@@H](N)Cc1c[nH]c2ccccc12)C(C)C)C(=O)N[C@@H](Cc1c[nH]c2ccccc12)C(N)=O [WVKAAAKAAAKVW]

MIC [17]: 8 µM (≈ 13.9 µg/mL)
MIC [7]: 10 µM (≈ 17.4 µg/mL)
MIC [19]: 10 µM (≈ 17.4 µg/mL)
MIC [20]: 10 µM (≈ 17.4 µg/mL)
SMILES: CC(C)C[C@H](NC(=O)[C@H](CC(=O)O)NC(=O)[C@H](CC(C)C)NC(=O)[C@H](CCCCN)NC(=O)[C@H](CC(C)C)NC(=O)[C@H](CC(=O)O)NC(=O)[C@H](CC(C)C)NC(=O)[C@H](CCCCN)NC(=O)[C@H](CC(C)C)NC(=O)[C@H](CC(=O)O)NC(=O)[C@H](CC(C)C)NC(=O)[C@H](CCCCN)NC(=O)[C@H](CCCN=C(N)N)NC(=O)[C@@H](N)CCCN=C(N)N)C(=O)O [RRKLDLKLDLKLDL]

MIC [17]: 25 µM (≈ 39.6 µg/mL)
MIC [7]: 30 µM (≈ 47.5 µg/mL)
MIC [19]: ≥ 42 µM
MIC [20]: 30 µM (≈ 47.5 µg/mL)
SMILES: CC(C)C[C@H](NC(=O)[C@H](CC(=O)O)NC(=O)[C@H](CC(C)C)NC(=O)[C@H](CCCCN)NC(=O)[C@H](CC(C)C)NC(=O)[C@H](CC(=O)O)NC(=O)[C@H](CC(C)C)NC(=O)[C@H](CCCCN)NC(=O)[C@H](CC(C)C)NC(=O)[C@H](CC(=O)O)NC(=O)[C@H](CC(C)C)NC(=O)[C@H](CCCCN)NC(=O)[C@@H](N)CCCN=C(N)N)C(=O)O [RKLDLKLDLKLDL]

MIC [2]: 64 µM (≈ 88.2 µg/mL)
MIC [4]: 64 µM (≈ 88.2 µg/mL)
MIC [5]: 16 µM (≈ 22 µg/mL)
MIC [6]: 64 µM (≈ 88.2 µg/mL)
MIC [7]: 8 µM (≈ 11 µg/mL)
MIC [8]: 64 µM (≈ 88.2 µg/mL)
MIC [9]: 4 µM (≈ 5.51 µg/mL)
MIC [21]: ≥ 128 µM
SMILES: CC[C@H](C)[C@H](N)C(=O)N[C@@H](CCCN=C(N)N)C(=O)N[C@@H](CS)C(=O)N[C@@H](CCCN=C(N)N)C(=O)N[C@@H](CCCN=C(N)N)C(=O)N[C@@H](CCCN=C(N)N)C(=O)N[C@@H](Cc1ccccc1)C(=O)N[C@@H](CS)C(=O)N[C@@H](CCCN=C(N)N)C(=O)N[C@H](C(N)=O)[C@@H](C)CC [IRCRRRFCRI]

MIC [13]: ≥ 1360 µM
SMILES: CC(C)C[C@H](NC(=O)[C@H](CCCN=C(N)N)NC(=O)[C@H](CC(C)C)NC(=O)[C@H](CC(C)C)NC(=O)[C@H](CCC(N)=O)NC(=O)[C@H](CCC(=O)O)NC(=O)[C@H](CC(C)C)NC(=O)[C@H](Cc1ccc(O)cc1)NC(=O)CNC(=O)[C@@H](N)CC(C)C)C(=O)O [LGYLEQLLRL]

MIC [13]: ≥ 1000 µM
MIC [14]: ≥ 1000 µM
SMILES: CC[C@H](C)[C@H](NC(=O)[C@H](C)NC(=O)CNC(=O)[C@H](CCCCN)NC(=O)[C@H](CCC(=O)O)NC(=O)[C@H](CCC(=O)O)NC(=O)[C@H](CC(=O)O)NC(=O)[C@H](CCC(=O)O)NC(=O)[C@H](CC(N)=O)NC(=O)[C@H](CCCN=C(N)N)NC(=O)CNC(=O)[C@H](CCC(N)=O)NC(=O)[C@H](CC(C)C)NC(=O)[C@@H](N)CCCCN)C(=O)N[C@H](C(=O)N[C@@H](CCCCN)C(=O)N[C@H](C(=O)N[C@@H](CCCCN)C(=O)NCC(=O)NCC(=O)N[C@@H](CC(C)C)C(=O)O)C(C)C)C(C)C [KLQGRNEDEEKGAIVKVKGGL]

The next lines start with the compound.

SMILES: CC[C@H](C)[C@H](NC(=O)[C@H](CC(=O)O)NC(=O)[C@H](CCCCN)NC(=O)[C@H](C)NC(=O)[C@H](C)NC(=O)CNC(=O)[C@H](CCCCN)NC(=O)[C@H](CC(C)C)NC(=O)[C@@H](NC(=O)[C@H](CC(=O)O)NC(=O)[C@@H](NC(=O)[C@@H](NC(=O)CN)C(C)C)C(C)C)[C@@H](C)CC)C(=O)N[C@@H](C)C(=O)NCC(=O)N[C@@H](Cc1cnc[nH]1)C(=O)N[C@@H](CC(C)C)C(=O)N[C@@H](CC(C)C)C(=O)N[C@@H](CO)C(=O)N[C@@H](CCCCN)C(=O)N[C@H](C(=O)N[C@@H](CCSC)C(=O)N[C@@H](CC(N)=O)C(=O)N[C@@H](CCCCN)C(=O)N[C@@H](CC(C)C)C(N)=O)C(C)C [GVVDILKGAAKDIAGHLLSKVMNKL]
MIC [10]: ≥ 100 µM
MIC [4]: 100 µM (≈ 259 µg/mL)
MIC [7]: 12.5 µM (≈ 32.4 µg/mL)
MIC [8]: 100 µM (≈ 259 µg/mL)
MIC [11]: 50 µM (≈ 130 µg/mL)
MIC [12]: 25 µM (≈ 64.8 µg/mL)

SMILES: CC[C@H](C)[C@H](NC(=O)[C@H](CC(=O)O)NC(=O)[C@H](CCCCN)NC(=O)[C@H](C)NC(=O)[C@H](C)NC(=O)CNC(=O)[C@H](CCCCN)NC(=O)[C@H](CC(C)C)NC(=O)[C@@H](NC(=O)[C@H](CC(=O)O)NC(=O)[C@@H](NC(=O)[C@@H](NC(=O)CN)C(C)C)C(C)C)[C@@H](C)CC)C(=O)N[C@@H](C)C(=O)NCC(=O)N[C@@H](Cc1cnc[nH]1)C(=O)N[C@@H](CC(C)C)C(=O)N[C@@H](C)C(=O)N[C@@H](CO)C(=O)N[C@@H](CCCCN)C(=O)N[C@H](C(=O)N[C@@H](CCSC)C(=O)N[C@@H](C)C(=O)N[C@@H](CCCCN)C(=O)N[C@@H](CC(C)C)C(N)=O)C(C)C [GVVDILKGAAKDIAGHLASKVMAKL]
MIC [10]: ≥ 100 µM
MIC [4]: > 100 µM
MIC [7]: 50 µM (≈ 125 µg/mL)
MIC [8]: > 100 µM
MIC [11]: 100 µM (≈ 251 µg/mL)
MIC [12]: ≥ 100 µM

SMILES: CC[C@H](C)[C@H](NC(=O)[C@H](C)NC(=O)CNC(=O)[C@H](CCCCN)NC(=O)[C@H](CCC(=O)O)NC(=O)[C@H](CCC(=O)O)NC(=O)[C@H](CC(=O)O)NC(=O)[C@H](CCC(=O)O)NC(=O)[C@H](CC(=O)O)NC(=O)[C@H](CCCN=C(N)N)NC(=O)CNC(=O)[C@H](CCC(N)=O)NC(=O)[C@H](CC(C)C)NC(=O)[C@@H](N)CCCCN)C(=O)N[C@H](C(=O)N[C@@H](CCCCN)C(=O)N[C@H](C(=O)N[C@@H](CCCCN)C(=O)NCC(=O)NCC(=O)N[C@@H](CC(C)C)C(=O)O)C(C)C)C(C)C [KLQGRDEDEEKGAIVKVKGGL]
MIC [13]: ≥ 500 µM
MIC [14]: ≥ 1000 µM

SMILES: CC[C@H](C)[C@@H]1NC(=O)[C@H](CCCN=C(N)N)NC(=O)[C@H](C(C)C)NC(=O)[C@H](CCCN=C(N)N)NC(=O)[C@@H]2CCCN2C(=O)[C@@H](NC(=O)[C@H](CC(C)C)NC(=O)[C@@H](N)CCCN=C(N)N)CSSC[C@@H](C(=O)N[C@@H](CCCN=C(N)N)C(N)=O)NC(=O)[C@H](C(C)C)NC(=O)[C@H](CCCN=C(N)N)NC1=O [RLCPRVRIRVCR]
MIC [1]: 2.62 µM (≈ 3.99 µg/mL)
MIC [15]: 10.5 µM (≈ 16 µg/mL)
MIC [16]: 10.5 µM (≈ 16 µg/mL)
MIC [17]: > 21 µM
MIC [6]: > 21 µM
MIC [18]: 21 µM (≈ 31.9 µg/mL)

SMILES: CC[C@H](C)[C@H](NC(=O)[C@H](CC(=O)O)NC(=O)[C@H](CCCCN)NC(=O)[C@H](C)NC(=O)[C@H](C)NC(=O)CNC(=O)[C@H](CCCCN)NC(=O)[C@H](CC(C)C)NC(=O)[C@@H](NC(=O)[C@H](CC(=O)O)NC(=O)[C@@H](NC(=O)[C@@H](NC(=O)CN)C(C)C)C(C)C)[C@@H](C)CC)C(=O)N[C@@H](C)C(=O)NCC(=O)N[C@@H](Cc1cnc[nH]1)C(=O)N[C@@H](CC(C)C)C(=O)N[C@@H](C)C(=O)N[C@@H](CO)C(=O)N[C@@H](CCCCN)C(=O)N[C@H](C(=O)N[C@@H](CCSC)C(=O)N[C@@H](CC(N)=O)C(=O)N[C@@H](CCCCN)C(=O)N[C@@H](C)C(N)=O)C(C)C [GVVDILKGAAKDIAGHLASKVMNKA]
MIC [10]: ≥ 100 µM
MIC [4]: > 100 µM
MIC [7]: > 100 µM
MIC [8]: > 100 µM
MIC [11]: > 100 µM
MIC [12]: ≥ 100 µM

SMILES: NC(=O)[C@H](Cc1c[nH]c2ccccc12)NC(=O)[C@H](CCCN=C(N)N)NC(=O)[C@H](Cc1c[nH]c2ccccc12)NC(=O)[C@H](CCCN=C(N)N)NC(=O)[C@H](CS)NC(=O)[C@H](Cc1ccccc1)NC(=O)[C@H](CCCN=C(N)N)NC(=O)[C@H](CCCN=C(N)N)NC(=O)[C@H](CCCN=C(N)N)NC(=O)[C@H](CS)NC(=O)[C@H](CCCN=C(N)N)NC(=O)[C@H](Cc1c[nH]c2ccccc12)NC(=O)[C@H](CCCN=C(N)N)NC(=O)[C@@H](N)Cc1c[nH]c2ccccc12 [WRWRCRRRFCRWRW]
MIC [2]: 2 µM (≈ 4.42 µg/mL)
MIC [4]: 8 µM (≈ 17.7 µg/mL)
MIC [5]: 2 µM (≈ 4.42 µg/mL)
MIC [6]: 2 µM (≈ 4.42 µg/mL)
MIC [7]: 4 µM (≈ 8.83 µg/mL)
MIC [8]: 4 µM (≈ 8.83 µg/mL)
MIC [9]: 1 µM (≈ 2.21 µg/mL)
MIC [21]: 4 µM (≈ 8.83 µg/mL)
